ChEMBL document CHEMBL1201862, “PubChem BioAssay data set” (2004)
“And” between values parts separate entries of the source, which are not always exact repeats. Equal entries are not always repeated.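 Protocol summary: plate cells (96-well), add compound at 5 concentrations, incubate 48 h, interpolate endpoints linearly. GI50: concentration for 50% inhibition of growth.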 The source made the active and inactive calls. No stated cut-off is given here; in the data, active = GI50 up to about 1.1 µM and inactive = higher.

Legend:
Test in all cases: NCI anticancer screen, dose series, 48 h
UACC-257 = test system: UACC-257
OVCAR-4 = test system: OVCAR-4
SF-539 = test system: SF-539
U-251 = test system: U-251
SF-268 = test system: SF-268
SW-620 = test system: SW-620
HCC 2998 = test system: HCC 2998
KM12 = test system: KM12
K562 = test system: K562
SK-MEL-28 = test system: SK-MEL-28
HOP-62 = test system: HOP-62
Hs-578T = test system: Hs-578T
HT-29 = test system: HT-29
EKVX = test system: EKVX
SN12C = test system: SN12C
KM-20L2 = test system: KM-20L2
TK-10 = test system: TK-10
BT-549 = test system: BT-549
MDA-MB-231 = test system: MDA-MB-231
MDA-MB-435 = test system: MDA-MB-435

| SMILES | GI50 (UACC-257) | GI50 (OVCAR-4) | GI50 (SF-539) | GI50 (U-251) | GI50 (SF-268) | GI50 (SW-620) | GI50 (HCC 2998) | GI50 (KM12) | GI50 (K562) | GI50 (SK-MEL-28) | GI50 (HOP-62) | GI50 (Hs-578T) | GI50 (HT-29) | GI50 (EKVX) | GI50 (SN12C) | GI50 (KM-20L2) | GI50 (TK-10) | GI50 (BT-549) | GI50 (MDA-MB-231) | GI50 (MDA-MB-435) |
| --- | --- | --- | --- | --- | --- | --- | --- | --- | --- | --- | --- | --- | --- | --- | --- | --- | --- | --- | --- | --- |
| COc1ccc(C2=CN3CCC[C@H]3C=C2c2cc(O)c(OC)c(OC)c2)cc1OC | 0.00646 µM (active) | 0.00286 µM (active) | 0.00505 µM (active) | 0.00416 µM (active) | 0.00454 µM (active) | 0.00337 µM (active) | 0.00482 µM (active) | 0.00337 µM (active) | 0.00339 µM (active) | 0.0045 µM (active) | 0.0065 µM (active) | 0.00539 µM (active) | 0.0056 µM (active) | 0.00608 µM (active) | 0.00403 µM (active) | 0.00887 µM (active) | 0.00859 µM (active) | 20.7 nM (active) | 0.00631 µM (active) | 0.00284 µM (active) |
| COc1cccc2c1C(=O)c1c(O)c3c(c(O)c1C2=O)C[C@@](O)(C(=O)CO)C[C@@H]3OC1CC(N)C(O)C(C)O1 (some centres undefined) | 215 nM (active) and 337 nM (active) | 1.16 µM (inactive) and 671 nM (active) |  | 44.9 nM (active) and 85.9 nM (active) |  | 79.4 nM (active) and 122 nM (active) | 314 nM (active) and 191 nM (active) | 254 nM (active) and 366 nM (active) |  |  |  |  | 312 nM (active) and 187 nM (active) | 547 nM (active) and 301 nM (active) | 89.5 nM (active) and 170 nM (active) | 0.879 µM (active) | 726 nM (active) and 404 nM (active) | 438 nM (active) and 255 nM (active) |  |  |
| Cc1ccc(NC(=O)COC(=O)c2cccc3c(=O)c4ccccc4[nH]c23)cc1 | 39.9 µM (inactive) | 48.3 µM (inactive) | 22.9 µM (inactive) | 29.4 µM (inactive) | 35.6 µM (inactive) | 21.5 µM (inactive) | 37.6 µM (inactive) | 22.1 µM (inactive) | 32.7 µM (inactive) | 47.4 µM (inactive) | 60.5 µM (inactive) |  | 36.6 µM (inactive) | 16.8 µM (inactive) | 32.1 µM (inactive) | 53.2 µM (inactive) | 22 µM (inactive) |  |  |  |
| Cc1nc2c(n1CCN(C)C)C(=O)c1ccccc1C2=O | 14 µM (inactive) | 15.6 µM (inactive) | 19.1 µM (inactive) | 14.5 µM (inactive) | 22 µM (inactive) | 15.2 µM (inactive) | 19.7 µM (inactive) | 15.2 µM (inactive) | 18.8 µM (inactive) | 53.6 µM (inactive) | 26.9 µM (inactive) |  | 10.4 µM (inactive) | 17.9 µM (inactive) | 16.6 µM (inactive) | 6.31 µM (inactive) | 38.8 µM (inactive) |  |  |  |
